Test results from patent publication US11339128B2 (Firmenich Incorporated, priority 2014, dated 2022).

Molecular target: T1, T1R2/T1R3 taste receptor (Homo sapiens, UniProt Q7RTX0+Q8TE23)
T1 sequence (Q8TE23 20-839): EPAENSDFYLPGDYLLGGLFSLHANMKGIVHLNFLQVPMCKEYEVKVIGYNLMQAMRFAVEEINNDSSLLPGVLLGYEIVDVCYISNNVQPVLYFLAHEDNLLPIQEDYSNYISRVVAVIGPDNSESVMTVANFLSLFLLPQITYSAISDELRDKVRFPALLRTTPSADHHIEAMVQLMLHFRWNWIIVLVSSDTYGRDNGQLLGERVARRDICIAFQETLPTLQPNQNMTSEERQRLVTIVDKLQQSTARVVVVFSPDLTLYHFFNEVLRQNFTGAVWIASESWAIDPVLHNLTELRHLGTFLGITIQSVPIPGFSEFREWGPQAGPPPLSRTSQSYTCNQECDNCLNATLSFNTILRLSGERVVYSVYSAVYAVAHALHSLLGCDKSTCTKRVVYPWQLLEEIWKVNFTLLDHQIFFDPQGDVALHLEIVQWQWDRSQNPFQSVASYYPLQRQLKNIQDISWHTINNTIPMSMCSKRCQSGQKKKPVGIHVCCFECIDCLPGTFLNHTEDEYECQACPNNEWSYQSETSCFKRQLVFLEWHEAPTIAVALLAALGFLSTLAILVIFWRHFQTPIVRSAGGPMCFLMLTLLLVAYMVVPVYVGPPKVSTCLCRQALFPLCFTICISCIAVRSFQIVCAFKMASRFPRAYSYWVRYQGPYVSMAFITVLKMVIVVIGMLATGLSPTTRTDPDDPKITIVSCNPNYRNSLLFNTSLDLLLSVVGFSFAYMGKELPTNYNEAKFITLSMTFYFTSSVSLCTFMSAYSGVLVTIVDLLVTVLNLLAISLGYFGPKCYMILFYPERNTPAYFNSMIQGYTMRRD
T1 sequence (Q7RTX0 21-852): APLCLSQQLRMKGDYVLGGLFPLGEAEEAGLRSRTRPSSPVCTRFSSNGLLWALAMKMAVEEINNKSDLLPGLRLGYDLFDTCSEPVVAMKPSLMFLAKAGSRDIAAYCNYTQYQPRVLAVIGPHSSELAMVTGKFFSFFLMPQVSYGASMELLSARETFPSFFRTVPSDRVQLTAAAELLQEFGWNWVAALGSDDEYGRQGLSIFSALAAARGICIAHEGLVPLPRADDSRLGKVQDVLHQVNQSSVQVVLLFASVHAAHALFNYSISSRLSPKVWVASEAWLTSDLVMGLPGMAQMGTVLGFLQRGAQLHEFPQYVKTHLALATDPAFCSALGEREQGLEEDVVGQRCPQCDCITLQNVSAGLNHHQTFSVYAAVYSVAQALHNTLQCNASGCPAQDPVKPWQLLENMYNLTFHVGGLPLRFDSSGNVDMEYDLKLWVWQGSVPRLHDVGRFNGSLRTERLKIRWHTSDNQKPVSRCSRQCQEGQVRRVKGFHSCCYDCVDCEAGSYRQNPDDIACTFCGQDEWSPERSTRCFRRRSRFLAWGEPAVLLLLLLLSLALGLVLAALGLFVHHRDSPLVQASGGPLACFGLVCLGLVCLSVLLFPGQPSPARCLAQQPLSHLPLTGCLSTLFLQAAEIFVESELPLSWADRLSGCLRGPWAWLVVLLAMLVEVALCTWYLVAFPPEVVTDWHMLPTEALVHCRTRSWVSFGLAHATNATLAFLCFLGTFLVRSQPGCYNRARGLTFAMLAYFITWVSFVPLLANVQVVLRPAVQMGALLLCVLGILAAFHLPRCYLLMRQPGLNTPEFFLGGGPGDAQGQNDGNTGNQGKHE
Assay: Receptor-based assay: sweetener EC50 enhancement ratio with and without test compound
Assay type: cell-based
Details: for Sucrose Enhancement EC50 Ratio: sweetener sucrose; for Sucralose Enhancement EC50 Ratio: sweetener sucralose; for Fructose Enhancement EC50 Ratio: sweetener fructose
Method in brief: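 Sweetener (sucrose, sucralose, fructose) EC50 measured alone and with 1, 3, 10 or 50 μM test compound. Enhancement ratio = EC50 without/with compound; A = >1 to <10, B = 10–20, C = >20.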

Structure (SMILES)	Sucrose Enhancement EC50 Ratio (1 μM test compound)	Sucralose Enhancement EC50 Ratio (3 μM test compound)	Sucrose Enhancement EC50 Ratio (3 μM test compound)	Fructose Enhancement EC50 Ratio (10 μM test compound)	Sucralose Enhancement EC50 Ratio (10 μM test compound)	Sucrose Enhancement EC50 Ratio (10 μM test compound)	Fructose Enhancement EC50 Ratio (50 μM test compound)
CCCc1cnc(N[C@H]2CC[C@H](Oc3cccc4nc(C)c(C(=O)O)c(N)c34)CC2)nc1 [Compound 706]	A (an enhancement ratio of greater than 1 and less than 10)	A (an enhancement ratio of greater than 1 and less than 10)	A (an enhancement ratio of greater than 1 and less than 10)	A (an enhancement ratio of greater than 1 and less than 10)	B (an enhancement ratio from 10 to 20)	B (an enhancement ratio from 10 to 20)	A (an enhancement ratio of greater than 1 and less than 10)
COc1ccnc(N[C@H]2CC[C@H](Oc3cccc4nc(C)c(C(=O)O)c(N)c34)CC2)n1 [Compound 707]	A (an enhancement ratio of greater than 1 and less than 10)	A (an enhancement ratio of greater than 1 and less than 10)	A (an enhancement ratio of greater than 1 and less than 10)	A (an enhancement ratio of greater than 1 and less than 10)	B (an enhancement ratio from 10 to 20)	B (an enhancement ratio from 10 to 20)	A (an enhancement ratio of greater than 1 and less than 10)
Cc1ccnc(N[C@H]2CC[C@H](Oc3cccc4nc(C)c(C(=O)O)c(N)c34)CC2)n1 [Compound 708]	A (an enhancement ratio of greater than 1 and less than 10)	C (an enhancement ratio greater than 20)	C (an enhancement ratio greater than 20)	A (an enhancement ratio of greater than 1 and less than 10)	C (an enhancement ratio greater than 20)	C (an enhancement ratio greater than 20)	–
CCCc1ccnc(N[C@H]2CC[C@H](Oc3cccc4nc(C)c(C(=O)O)c(N)c34)CC2)n1 [Compound 709]	A (an enhancement ratio of greater than 1 and less than 10)	A (an enhancement ratio of greater than 1 and less than 10)	A (an enhancement ratio of greater than 1 and less than 10)	–	A (an enhancement ratio of greater than 1 and less than 10)	A (an enhancement ratio of greater than 1 and less than 10)	–
COc1cc(OC)nc(N[C@H]2CC[C@H](Oc3cccc4nc(C)c(C(=O)O)c(N)c34)CC2)n1 [Compound 710]	A (an enhancement ratio of greater than 1 and less than 10)	A (an enhancement ratio of greater than 1 and less than 10)	A (an enhancement ratio of greater than 1 and less than 10)	A (an enhancement ratio of greater than 1 and less than 10)	B (an enhancement ratio from 10 to 20)	B (an enhancement ratio from 10 to 20)	A (an enhancement ratio of greater than 1 and less than 10)
